For one data set, the target named is T1, AChE (from electric eel) (Electrophorus electricus, UniProt O42275).
T1 construct: purchased Sigma-Aldrich
Kind of data set: biochemical. The conditions noted are these: eeAChE; for IC50: mean ± spread.

The target of data set [1] is butyrylcholinesterase (BuChE, from equine serum) (Equus caballus, UniProt P81908). Kind of data set: biochemical. Conditions: eqBuChE; mean ± spread.
The next data set deals with primary cortical neurons. Kind of data set: Neuroprotection against OGD/R injury, MTT cell viability. The format is cell-based. Conditions: Rattus norvegicus, Primary cortical neuron, compound 10 μM, control 100%, OGD/R group 40.4%, read-out: Cell viability (MTT) after OGD/R. Here is the method: The parental compounds Clau F and CZ-7 have remarkable neuroprotective effects. To further confirm whether the derivatives retain activity, an OGD/R model was performed in primary cortical neurons, and 3-(4,5-dimethylthiazol-2-yl)-2,5-diphenyltetrazolium bromide (MTT) assays were used to test cell viability. […]. According to the experimental results above, compound 6bd was selected as the candidate compound for the subsequent investigations.
[…]. All cell suspensions were grown in neurobasal/B27 medium with 100-U/mL penicillin and 100-μg/mL streptomycin. The cells were plated in poly-L-lysine (PLL, 0.1 mg/mL)-coated multiwell plates or chamber slides and maintained at 37 °C in a humidified atmosphere of 5% CO2 and 95% air. Seven day cultures were used for treatment. The treatment methods were similar to those used for PC12, but the concentrations of H2O2 and sodium dithionite were 100 μM and 2 mM, respectively.
Cell viability was determined by MTT assay. Cells were incubated with 5 mg/mL MTT (10 μL) at 37 °C for 4 h. The formazan crystals were dissolved, and absorbance was determined at 570 nm using a Microplate Reader (Thermo, Germany). The cell viability was expressed as a percentage of the optical density (OD) value of the control cultures.
Figure 2 Neuroprotective activity screening of 6aa–ad, 6ba–bf, 6ca–cd, and CZ-7 at 10 μM in primary cortical neurons induced by oxygen–glucose deprivation/reoxygenation (OGD/R). Neurons were exposed to […] sodium dithionite and reoxygenation. A 3-(4,5-dimethylthiazol-2-yl)-2,5-diphenyltetrazolium bromide (MTT) assay was used to test the cell viability. The absorbance of normal cells was regarded as 100%. Error bars represent the standard deviation. ### p < 0.001 vs. control; ** p < 0.05, *** p < 0.01 vs. model (means ± standard deviation, n = 6).

On the set-up of data set [2]: method as in PMID 29202406. The conditions noted are these: cited from earlier work.
Data set [3] concerns ICR (Institute of Cancer Research) mice. The conditions noted are these: oral 1 g/kg dose; cited from earlier work.
Another data set in a line: in vitro. Conditions: PAMPA-BBB. The format is in vitro ADME. Here is the method:
A blood–brain barrier (BBB) penetration assay in vitro is essential for anti-AD drug development. […] The compounds’ blood–brain barrier penetration was evaluated by using the parallel artificial membrane permeation assay (PAMPA) described by Di et al.. The two commercial drugs were purchased from Aladdin (China). Porcine brain lipid was obtained from Sigma (China). The donor microplate (polyvinylidene fluoride (PVDF) membrane, pore size 0.45 μm) and acceptor microplate were both from Millipore (China). The 96-well ultraviolet (UV) plate (COSTAR) was from Corning Incorporated (USA). The detailed procedure was described in [26, 27].

A short description of data set [4]: Singlet oxygen scavenging by ESR spectroscopy (TEMP, UVA light). Format: physicochemical. Conditions: 10^−2 mol/L compound, 5 × 10^−2 mol/L TEMP in DMSO, UVA light 1 min. Here is the method: Oxidative stress caused by reactive oxygen (for example, singlet oxygen and hydroxyl radical) is related to the death of neurons and the formation of intracellular Aβ oligomer. Drugs designed to prevent the formation or removal of free radicals in the brain are beneficial for AD. The main technique for detecting organic free radicals is electron spin resonance (ESR) spectroscopy. This technology can detect radical concentrations on the order of 10 nM or less under favorable conditions and has high sensitivity. Therefore, compound 6bd was tested for its ability to scavenge active oxygen by using ESR spectroscopy. For comparison, edaravone (Eda) was used as a reference.
ESR signals were recorded with a 10 mW incident microwave and […] field modulation of 1 G. The scan width was 150 G for 2, 2, 6, 6-tetramethylpiperidine (TEMP) experiments. All measurements were performed at room temperature (RT). Briefly, 5 × 10^−2 mol/L TEMP and 10^−2 mol/L 6bd or Eda were mixed in DMSO, and ESR signals were obtained after exposure to UVA light for 1 min.

Chain of butyrylcholinesterase (BuChE, from equine serum) (P81908 whole entry): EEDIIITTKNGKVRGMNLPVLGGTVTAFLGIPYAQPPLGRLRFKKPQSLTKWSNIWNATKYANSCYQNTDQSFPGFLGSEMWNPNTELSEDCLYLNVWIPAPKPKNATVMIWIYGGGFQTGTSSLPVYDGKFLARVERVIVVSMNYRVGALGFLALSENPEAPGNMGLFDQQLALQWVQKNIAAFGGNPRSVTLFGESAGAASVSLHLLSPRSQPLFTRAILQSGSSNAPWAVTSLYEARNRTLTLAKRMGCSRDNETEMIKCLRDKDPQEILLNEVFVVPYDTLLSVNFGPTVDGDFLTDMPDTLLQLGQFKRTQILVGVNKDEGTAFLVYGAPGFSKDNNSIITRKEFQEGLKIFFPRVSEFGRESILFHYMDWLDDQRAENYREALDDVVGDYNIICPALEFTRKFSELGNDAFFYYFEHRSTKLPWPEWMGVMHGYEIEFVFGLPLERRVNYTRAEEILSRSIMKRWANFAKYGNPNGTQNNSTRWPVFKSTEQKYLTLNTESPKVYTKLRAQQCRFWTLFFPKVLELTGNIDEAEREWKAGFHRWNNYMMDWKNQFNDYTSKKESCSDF
T1 sequence (O42275 24-633): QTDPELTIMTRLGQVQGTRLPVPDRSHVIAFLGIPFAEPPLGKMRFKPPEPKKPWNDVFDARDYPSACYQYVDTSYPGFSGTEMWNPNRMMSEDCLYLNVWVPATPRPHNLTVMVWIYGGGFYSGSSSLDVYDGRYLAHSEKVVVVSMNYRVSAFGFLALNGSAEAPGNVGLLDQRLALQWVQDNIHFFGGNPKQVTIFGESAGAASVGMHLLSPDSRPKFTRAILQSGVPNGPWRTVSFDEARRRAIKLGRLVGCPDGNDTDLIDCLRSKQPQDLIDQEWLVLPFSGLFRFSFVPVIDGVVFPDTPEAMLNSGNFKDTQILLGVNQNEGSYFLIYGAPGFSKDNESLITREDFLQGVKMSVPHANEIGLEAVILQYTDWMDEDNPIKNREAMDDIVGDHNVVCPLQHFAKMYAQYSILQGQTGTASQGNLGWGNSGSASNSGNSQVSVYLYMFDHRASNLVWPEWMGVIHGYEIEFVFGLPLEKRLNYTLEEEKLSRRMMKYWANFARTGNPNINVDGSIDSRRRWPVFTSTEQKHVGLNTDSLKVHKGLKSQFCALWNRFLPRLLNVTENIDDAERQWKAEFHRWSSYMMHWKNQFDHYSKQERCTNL

As to `Cc1cc2c([nH]c3ccc(C(C)(C)C)cc32)c2c1OC(C)(C)C=C2` [CZ-7, reference compound], on AChE (from electric eel) (compound at 100 μM, read-out: AChE inhibition rate (%) in 100 μM), the inhibition at 100 µM came out at 32.5 ± 6.52%. It took 59.5 ± 5.62 µM to reach half-maximal inhibition in data set [1] (IC50). The viability at 10 µM with primary cortical neurons amounted to 113%. The “Exposure in the brain relative to plasma” value in data set [2] is on record as 4.3 fold. For the same compound, in data set [3], the Acute toxicity finding result is “no toxic side effects”.
Turning to `CC1(C)C=Cc2c(c(/C=C/C(=O)NCC3CCN(Cc4ccccc4F)CC3)cc3c2[nH]c2ccc(C(C)(C)C)cc23)O1` [Compound 6bb, (E)-3-(8-(tert-Butyl)-3,3-dimethyl-3,11-dihydropyrano[3,2-a]carbazol-5-yl)-N-((1-(2-fluorobenzyl)piperidin-4-yl)methyl)acrylamide], the concentration for half-maximal inhibition (IC50) against AChE (from electric eel) is 4080 ± 120 nM; in data set [1], 5.63 ± 0.31 µM. In the data set on primary cortical neurons, the viability at 10 µM is 109%.
`CC1(C)C=Cc2c(c(/C=C/C(=O)NCC3CCN(Cc4ccccc4Cl)CC3)cc3c2[nH]c2ccc(C(C)(C)C)cc23)O1` [Compound 6bd, (E)-3-(8-(tert-Butyl)-3,3-dimethyl-3,11-dihydropyrano[3,2-a]carbazol-5-yl)-N-((1-(2-chlorobenzyl)piperidin-4-yl)methyl)acrylamide]: the IC50 at AChE (from electric eel) stood at 4340 ± 460 nM; in data set [1], 5.46 ± 0.61 µM. Moreover, in the data set on primary cortical neurons, the viability at 10 µM came to 126%. The Brain penetration classification result in the data set “in vitro” is reported as “good brain penetration”. Also, the Papp in the data set “in vitro” (means ± SD of three independent experiments, read-out: Permeability Pe, Experiment) amounted to 4.38 ± 0.05 ×10⁻⁶ cm/s. Also, the “Singlet oxygen scavenging compared with edaravone (Eda)” value in data set [4] is “stronger effect”.
With `CC1(C)C=Cc2c(c(/C=C/C(=O)NCC3CCN(Cc4cccc(Cl)c4)CC3)cc3c2[nH]c2ccc(C(C)(C)C)cc23)O1` [Compound 6be, (E)-3-(8-(tert-Butyl)-3,3-dimethyl-3,11-dihydropyrano[3,2-a]carbazol-5-yl)-N-((1-(3-chlorobenzyl)piperidin-4-yl)methyl)acrylamide], the concentration for half-maximal inhibition (IC50) on AChE (from electric eel) came out at 1690 nM; in data set [1], 6.36 ± 1.21 µM. The viability at 10 µM in the data set on primary cortical neurons was 105%.
Take `CC1(C)C=Cc2c(c(/C=C/C(=O)NCC3CCN(Cc4ccc(Cl)cc4)CC3)cc3c2[nH]c2ccc(C(C)(C)C)cc23)O1` [Compound 6bf, (E)-3-(8-(tert-Butyl)-3,3-dimethyl-3,11-dihydropyrano[3,2-a]carbazol-5-yl)-N-((1-(4-chlorobenzyl)piperidin-4-yl)methyl)acrylamide]: the concentration for half-maximal inhibition (IC50) against AChE (from electric eel) stood at 1630 ± 300 nM; in data set [1], 12.1 ± 0.76 µM. The viability at 10 µM in the data set on primary cortical neurons turned out to be 107%.

The values are drawn from paper PMC7957565 (Molecules, 2021).
